Test results: patent US10988465B2, “CXCR4 inhibitors and uses thereof” (X4 Pharmaceuticals, Inc., priority 2016, dated 2021)
Like-named read-outs stand apart in the source and are kept apart here.

Key:
[1] = target: T1, Jurkat cells expressing CXCR4 (Homo sapiens, UniProt P61073); assay: Chemokine (CXCL12-AF647) binding inhibition assay; conditions: CXCL12-AF647 25 ng/mL, read-out: IC50 CXCL-12 binding Jurkat
T1 construct: endogenous in cells; host or cells: Jurkat
Method in brief: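 Cells in HBSS, 20 mM HEPES, 0.2% BSA, pH 7.4, preincubated 15 min at room temperature with compound, then 25 ng/mL CXCL12-AF647 for 30 min. After washing and paraformaldehyde fixation, bound ligand read by flow cytometry; percent inhibition calculated from MFI relative to unlabeled and ligand-only controls.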

[2] = Rat brain uptake assay: pharmacokinetics and brain penetration after IV-PO administration; assay type: in vivo, male SD rats; conditions: male, SD; for clearance / AUC(0-t) / bioavailability / half-life: Rat (3 mg/kg IV; 10 mg/kg, PO); for bioavailability: read-out: F % (oral bioavailability); for half-life: read-out: t½ (converted)
Procedure: Example 39: Pharmacokinetics and Brain Penetration Experiment to Determine Brain and Plasma Concentration of Compounds after IV-PO Administration to Male SD Rats
The IV and PO dosing solutions were prepared in 50 mM citrate buffer (pH 4.0) at 2 mg/mL. The blood collection was performed as follows: the animal was restrained manually at the designated time points, approximately 150 μL of blood sample was collected via cardiac puncture vein into EDTA-2K tubes. The blood samples were maintained in wet ice first and centrifuged to obtain plasma (2000 g, 4° C., 5 min) within 15 minutes post sampling. The brain collection was performed as follows: a mid-line incision was made in the animal's scalp and the skin was retracted. Using small bone cutters and rongeurs, the skull overlying the brain was removed. The brain was removed using a spatula and rinsed with cold saline. The brain was placed in screw-top tubes and then stored under −70° C. until analysis. The CSF collection was performed as follows: the animal was euthanized under deep anesthesia with air bubble tail vein injection. The CSF was collected by direct puncture of butterfly needle into the cisterna magna, using the occipital bone and the wings of the atlas as landmarks. A piece of white paper was used as a background to monitor color change in the sample just above the needle during collection. Upon observation of color change, the PE tubing was quickly clamped off above the color change and cut just above the clamped site. The clear sample was drawn into the syringe.
An aliquot of 30 μL sample was added to 100 μL MeCN containing 100 ng/mL IS (Dexamethasone). The mixture was vortexed for 10 min and centrifuged at 5800 rpm for 10 min. An aliquot of 40 μL supernatant was added with 40 μl H2O and the mixture was vortexed for 5 min. An aliquot of 2 μL supernatant was injected for LC-MS/MS analysis.
The sample was homogenized with 3 volumes (v/w) of PBS. An aliquot of 30 μL sample was added with 100 μL MeCN containing 100 ng/mL IS (Dexamethasone). The mixture was vortexed for 10 min and centrifuged at 5800 rpm for 10 min. An aliquot of 40 μL supernatant was added with 40 μl H2O and the mixture was vortexed for 5 min. An aliquot of 2 μL supernatant was injected for LC-MS/MS analysis.
An aliquot of 10 μL sample was added to 10 μL MeOH/H2O (1/1) and 40 μL ACN containing 200 ng/mL IS (Dexamethasone) 120 μL H2O. The mixture was vortexed for 5 min. An aliquot of 2 μL supernatant was injected for LC-MS/MS analysis.
The sample analysis was performed on UPLC-MS/MS-02 (Triple Quad™ 4000) under the following conditions: positive ion, ESI, MRM detection using dexamethasone as internal standard. HPLC conditions: mobile phase A: H2O-0.1% FA, mobile phase B: MeCN-0.1% FA on ACQUITY UPLC HSS T3 (2.1×50 mm, 1.8 μm) column at 60° C. In Table 11, F % means means oral bioavailability (the total number for protein bound and free fraction).

[3] = target: T2, CXCR-4 transfected U87 cell line (U87.CXCR4) (Homo sapiens, UniProt P61073); assay: Intracellular CXCL-12-induced calcium mobilization assay (FLIPR); assay type: cell-based; conditions: U87.CXCR4 cells; CXCL-12 25-50 ng/mL; compound added 15 min before; read-out: IC50 CXCL-12 Ca^2+ flux U87.CXCR4+
T2 construct: expressed in transfected cells; host or cells: U87 (U87.CXCR4)
T2 sequence (P61073 whole entry): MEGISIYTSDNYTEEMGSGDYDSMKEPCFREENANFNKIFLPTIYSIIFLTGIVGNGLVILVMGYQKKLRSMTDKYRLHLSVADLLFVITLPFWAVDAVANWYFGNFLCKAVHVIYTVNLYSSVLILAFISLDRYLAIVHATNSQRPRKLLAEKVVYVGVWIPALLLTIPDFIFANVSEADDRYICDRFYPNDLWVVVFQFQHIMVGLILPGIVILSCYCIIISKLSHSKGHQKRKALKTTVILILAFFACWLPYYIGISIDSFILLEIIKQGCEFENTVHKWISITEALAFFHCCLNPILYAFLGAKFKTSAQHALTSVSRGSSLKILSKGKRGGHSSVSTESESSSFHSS
Method in brief: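 CXCL-12 (25-50 ng/mL) was the stimulus, and the intracellular calcium rise was tracked kinetically by FLIPR at 37 °C. Cells were U87.CXCR4 transfectants pre-loaded 45 min at 37 °C with 4 μM (final) Fluo-2 AM in HEPES-buffered HBSS with 0.2% BSA, pH 7.4.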

T1 sequence (P61073 whole entry): as above

`Cc1cccnc1[C@@H]1CCC[C@H](c2nc3cccc(N4CCN(C)CC4)c3[nH]2)N1C` (racemic) [I-3, 2-((2R,6S)-1-methyl-6-(3-methylpyridin-2-yl)piperidin-2-yl)-7-(4-methylpiperazin-1-yl)-1H-benzo[d]imidazole] gave an IC50 [1] of 0.01 to 100 nM, a clearance ([2]; plasma) of 123 mL/min/kg and an AUC(0-t) ([2]; plasma, read-out: AUClast (P)) of 503 ng·h/mL. It also gave a bioavailability ([2]; plasma) of 37.6%, a half-life ([2]; plasma) of 2.1 h and an AUC(0-t) ([2]; brain, read-out: AUClast (b)) of 1520 ng·h/mL. It also gave an IC50 [3] of 0.01 to 100 nM.

In the case of `CN1CCN(c2cccc3nc([C@H]4CCC[C@@H](c5ncccc5Cl)N4)[nH]c23)CC1` (racemic) [I-122], the IC50 [1] is reported as 0.01 to 100 nM, the Kp uu ([2]; brain/plasma (unbound), Fu (b)*AUC last (b)/Fu (p)*AUC last (p), Rat, read-out: Kp, uu (unbound brain/unbound plasma drug concentration ratio)) is reported as 0.2 and the Kp ([2]; brain/plasma, AUC last(b)/AUC last(p), Rat, read-out: Kp (brain/plasma drug concentration ratio)) is reported as 1.22. For the same compound, the clearance ([2]; plasma) was 31.7 mL/min/kg, the AUC(0-t) ([2]; plasma, read-out: AUClast (P)) was 5440 ng·h/mL and the bioavailability ([2]; plasma) was 74.6%. For the same compound, the half-life ([2]; plasma) was 5.31 h, the AUC(0-t) ([2]; brain, read-out: AUClast (b)) was 6650 ng·h/mL and the IC50 [3] was 0.01 to 100 nM.
